Tests used:
[1] = test system: outpatients with a new episode of depression; assay: Study of 96% pure EPA (ethyl ester) as monotherapy versus placebo in depression; Bech Scale and depression sub score of the HDRS; type: in vivo, human; design: key to Bech score, Mean: Bech score = sum of 6 HDRS items; key to Change of Bech score: reduction of Bech score (sum of 6 HDRS items) over trial; key to Depression subscore (item1, item2, item3), Mean / Depression subscore, Mean: sum of HDRS item 1, item 2 and item 3; settings: for Bech score, Mean / Depression subscore (item1, item2, item3), Mean / Depression subscore, Mean: EPA any dose; for Depression subscore (item1, item2, item3), Mean: ITT
Method: (§1) A study was performed on outpatients with a new episode of depression using 96% pure EPA, as the ethyl ester, as a monotherapy for treatment of depression. The primary objective was to examine the effects of 96% pure EPA versus placebo on the Hamilton Depression Rating Scale (HDRS) in patients with a new or recurrent episode of depression. • 1. The Bech Scale (sum of 6 items as specified) was used as the instrument to measure efficacy across all subjects, i.e. the reduction of the Bech Score in the course of the trial, by comparing this change in the active groups with that in the placebo group. The Bech Scale consists of 6 items from the original HDRS: depression, guilt, work/interest, psychomotor retardation, anxiety psychic and general somatic symptoms (loss of energy, tiredness) and has been successfully used in several trials (Bech 2002 Acta Psychiatry Scand vol 106; p 252-264). • 2. For the differentiation of the subgroups of subjects, item 6 (early morning awakening), item 12 (loss of appetite) and item 16 (weight loss) were chosen from the HDRS, to identify subjects suffering from severe melancholic features. These items are also related to the definition of the melancholia specifier according the DSM-IV (American Psychiatric Association: 4th Edition, 2000). This specification was only done once, i.e. at the baseline visit (v1). Patients with a score of 2 in any of these 3 items were regarded as having severe melancholic items and therefore belonging the severe melancholic group, the others were regarded as not belonging to this group. The characteristics could change in the course of treatment, therefore it was important that only the condition at baseline was used for the definition. Results: An analysis of a less frequently used, but pre-specified sub score, i.e. the depression sub score, which is the sum of item 1 (depression), item 2 (guilt) and item 3 (suicidality), confirmed the findings.

[2] = test system: non-responsive patients on standard therapy; assay: Earlier trials of 96% pure EPA as add on to standard therapy in non-responsive patients; Bech score over time; type: in vivo, human; design: key to Bech score, Mean: Bech score = sum of 6 HDRS items; settings: for Bech score, Mean: Add on therapy
Excerpt: as §1, with “The” for “A study was performed on outpatients with a new episode of depression using 96% pure EPA, as the ethyl ester, as a monotherapy for treatment of depression. The”, “Results:” for “Results: An analysis of a less frequently used, but pre-specified sub score, i.e. the depression sub score, which is the sum of item 1 (depression), item 2 (guilt) and item 3 (suicidality), confirmed the findings.”
The following presents the Bech-Score over time in the severe melancholic groups, contrasted with those subjects showing no severe melancholic signs.

CC/C=C\C/C=C\C/C=C\C/C=C\C/C=C\CCCC(=O)O [EPA, all cis (or all z) 5,8,11,14,17-eicosapentaenoic acid]
Change of Bech score compared with placebo ([1]; ITT group): no significant difference
Change of Bech score ([1]; ITT group, all subjects, placebo changed by 3.9 points): 4.0 points
Bech score, Mean ([1]; ITT group, Bech l2, after 2 weeks, last observation carried forward): 8.1
Bech score, Mean ([1]; ITT group, Bech l4, after 4 weeks, last observation carried forward): 6.6
Bech score, Mean ([1]; ITT group, Bech l6, after 6 weeks, last observation carried forward): 6.3
Bech score, Mean ([1]; ITT group, Bech v1 = baseline week 1): 10.3
Depression subscore (item1, item2, item3), Mean ([1]; baseline): 4.3
Depression subscore (item1, item2, item3), Mean ([1]; outcome, LOCF): 2.3
Bech score, Mean ([1]; No severe melancholic signs, Bech l2 (week 2)): 8.8
Bech score, Mean ([1]; No severe melancholic signs, Bech l4 (week 4)): 6.3
Bech score, Mean ([1]; No severe melancholic signs, Bech l6 (week 6)): 6.1
Bech score, Mean ([1]; No severe melancholic signs, Bech v1 (baseline)): 10.2
Depression subscore, Mean ([1]; No severe melancholic signs, baseline): 4.4
Depression subscore, Mean ([1]; No severe melancholic signs, outcome): 2.4
Bech score, Mean ([1]; With severe melancholic signs, Bech l2 (week 2)): 7.3
Bech score, Mean ([1]; With severe melancholic signs, Bech l4 (week 4)): 7.0
Bech score, Mean ([1]; With severe melancholic signs, Bech l6 (week 6)): 6.5
Bech score, Mean ([1]; With severe melancholic signs, Bech v1 (baseline)): 10.3
Depression subscore, Mean ([1]; With severe melancholic signs, baseline): 4.1
Depression subscore, Mean ([1]; With severe melancholic signs, outcome): 2.3
Change of Bech score compared with placebo ([1]; non-severe melancholic group): not significantly different
Change of Bech score ([1]; non-severe melancholic group, placebo change 5.0): 4.1
Depression sub score outcome compared with placebo (ANVOVA, baseline as covariate) ([1]; patients with severe melancholic signs): significant superiority
Improvement of depression sub score ([1]; patients with severe melancholic signs, placebo 0.7 points, p<0.05): 1.8 points
Improvement of Bech score ([1]; patients with severe melancholic signs, placebo 2.9 points, p<0.05): 3.8 points
Bech score, Mean ([2]; no severe melancholic signs, Bech l2 (week 2)): 8.3
Bech score, Mean ([2]; no severe melancholic signs, Bech l4 (week 4)): 7.3
Bech score, Mean ([2]; no severe melancholic signs, Bech l8 (week 8)): 6.7
Bech score, Mean ([2]; no severe melancholic signs, Bech l12 (week 12)): 6.7
Bech score, Mean ([2]; no severe melancholic signs, Bech v1 (baseline)): 9.8
Bech score, Mean ([2]; with severe melancholic signs, Bech l2 (week 2)): 8.1
Bech score, Mean ([2]; with severe melancholic signs, Bech l4 (week 4)): 6.8
Bech score, Mean ([2]; with severe melancholic signs, Bech l8 (week 8)): 5.9
Bech score, Mean ([2]; with severe melancholic signs, Bech l12 (week 12)): 5.3
Bech score, Mean ([2]; with severe melancholic signs, Bech v1 (baseline)): 9.0
Improvement of Bech score ([2]; add on therapy, patients with severe melancholic features, 12 weeks, placebo 2.8 points, p<0.05): 3.7 points
Bech score outcome at 12 weeks compared with placebo (ANVOVA, baseline as covariate, last observation carried forward) ([2]; add on therapy, patients with severe melancholic signs): statistically superior

— patent publication US20060142390A1, “Treatment for severe melancholic depression” (priority 2004, published 2006)
